One test addresses human Gal-3 (hGal-3) (Homo sapiens (Human), UniProt P17931). Description: Competitive binding assay: binding of biotinylated hGal-3 to microplate-adsorbed asialofetuin (ASF). The settings on record: Activity on hGal-3; mean values of several measurements. In outline: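 Biotinylated hGal-3 (300-1000 ng/mL) bound to ASF-coated wells with serially diluted compound, 3 h at 4° C. After washing, bound protein was detected with streptavidin-peroxidase (80 ng/mL, 1 h, 4° C) and ABTS substrate; IC50 values are means of several measurements.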

The next test concerns the target human Gal-1 (hGal-1). Description: Competitive binding assay: binding of biotinylated hGal-1 to microplate-adsorbed asialofetuin (ASF). The settings on record: Activities on hGal-1; mean values of several measurements. In outline:
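Biotin-hGal-3/hGal-1 300-1000 ng/mL + cpd (DMSO dilutions) on ASF-coated plate, 3 h 4° C; wash; SA-HRP 80 ng/mL 1 h 4° C; wash; ABTS. IC50 = mean of several runs. hGal-1 preferably Cys→Ser (all six) mutant.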

human Gal-1 (hGal-1), sequence (P09382 2-135 limits assumed): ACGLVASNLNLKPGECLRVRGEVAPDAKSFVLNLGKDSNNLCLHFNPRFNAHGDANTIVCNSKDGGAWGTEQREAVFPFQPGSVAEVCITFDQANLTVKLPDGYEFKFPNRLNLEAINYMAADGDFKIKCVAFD
human Gal-3 (hGal-3), sequence (P17931 whole entry): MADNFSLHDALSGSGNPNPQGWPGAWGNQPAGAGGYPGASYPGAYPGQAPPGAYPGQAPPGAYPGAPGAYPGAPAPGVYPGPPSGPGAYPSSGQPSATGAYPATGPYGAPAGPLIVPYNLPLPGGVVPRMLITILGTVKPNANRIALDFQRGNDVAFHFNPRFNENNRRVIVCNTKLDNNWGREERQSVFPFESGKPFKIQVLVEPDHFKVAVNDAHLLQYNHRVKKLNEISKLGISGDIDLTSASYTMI

On to `CO[C@@H]1[C@@H](n2cc(-c3ccc(Cl)c(F)c3F)nn2)[C@@H](O)[C@@H](CO)O[C@@H]1CC1CC(C(C)(C)C)=NO1` (stereo partly drawn) [Ex 1.266], for which the figures for the IC50 on human Gal-3 (hGal-3) and on human Gal-1 (hGal-1) were 0.091 µM and 1.56 µM, respectively.
The corresponding values for `CO[C@@H]1[C@@H](n2cc(-c3ccc(C#N)c(F)c3F)nn2)[C@@H](O)[C@@H](CO)O[C@@H]1Cc1cc(C(C)(C)C)on1` [Ex 1.267] are 0.16 µM and 6.1 µM.
The corresponding values for `CO[C@@H]1[C@@H](n2cc(-c3cc(F)c(F)c(F)c3)nn2)[C@@H](O)[C@@H](CO)O[C@@H]1Cc1cc(C2(C)CCOCC2)on1` [Ex 1.268] are 0.11 µM and 2.49 µM.
For `CO[C@@H]1[C@@H](n2cc(-c3ccc(F)c(F)c3F)nn2)[C@@H](O)[C@@H](CO)O[C@@H]1Cc1cc(C2(C)CCOCC2)on1` [Ex 1.269], the IC50 (commonly the concentration at which inhibition is half-maximal) at human Gal-3 (hGal-3) was found to be 0.049 µM; at human Gal-1 (hGal-1) it was 0.9 µM.
The corresponding values for `CO[C@@H]1[C@@H](n2cc(-c3ccc(C)c(F)c3F)nn2)[C@@H](O)[C@@H](CO)O[C@@H]1Cc1cc(C2(C)CCOCC2)on1` [Ex 1.270] are 0.038 µM and 3.55 µM.
For `CO[C@@H]1[C@@H](n2cc(-c3ccc(Cl)c(F)c3F)nn2)[C@@H](O)[C@@H](CO)O[C@@H]1Cc1cc(C2(C)CCOCC2)on1` [Ex 1.271], in that order: 0.049 µM and 1.66 µM.
For `CO[C@@H]1[C@@H](n2cc(-c3cc(F)c(F)c(F)c3)nn2)[C@@H](O)[C@@H](CO)O[C@@H]1Cc1cc(C2(C)CCCC2)on1` [Ex 1.272], in that order: 0.25 µM and 3.49 µM.
Take `CO[C@@H]1[C@@H](n2cc(-c3ccc(F)c(F)c3F)nn2)[C@@H](O)[C@@H](CO)O[C@@H]1Cc1cc(C2(C)CCCC2)on1` [Ex 1.273]: the figures for the IC50 at human Gal-3 (hGal-3) and at human Gal-1 (hGal-1) were 0.066 µM and 0.72 µM, respectively.
For `CO[C@@H]1[C@@H](n2cc(-c3ccc(C)c(F)c3F)nn2)[C@@H](O)[C@@H](CO)O[C@@H]1Cc1cc(C2(C)CCCC2)on1` [Ex 1.274], in that order: 0.11 µM and 5.54 µM.
The corresponding values for `CO[C@@H]1[C@@H](n2cc(-c3ccc(Cl)c(F)c3F)nn2)[C@@H](O)[C@@H](CO)O[C@@H]1Cc1cc(C2(C)CCCC2)on1` [Ex 1.275] are 0.11 µM and 3.3 µM.
The corresponding values for `CO[C@@H]1[C@@H](n2cc(-c3cc(F)c(F)c(F)c3)nn2)[C@@H](O)[C@@H](CO)O[C@@H]1Cc1cc(C2(C#N)CCCC2)on1` [Ex 1.276] are 0.097 µM and 5.1 µM.
For `CO[C@@H]1[C@@H](n2cc(-c3ccc(C)c(F)c3F)nn2)[C@@H](O)[C@@H](CO)O[C@@H]1Cc1cc(C2(C#N)CCCC2)on1` [Ex 1.278], the IC50 is 0.093 µM at human Gal-3 (hGal-3) and 6.7 µM at human Gal-1 (hGal-1).
For the compound `CO[C@@H]1[C@@H](n2cc(-c3ccc(Cl)c(F)c3F)nn2)[C@@H](O)[C@@H](CO)O[C@@H]1CC1CC(C(C)(C)CO)=NO1` (stereo partly drawn) [Ex 1.280], the values for the 50% inhibitory concentration (IC50) on human Gal-3 (hGal-3) and on human Gal-1 (hGal-1) were 0.3 µM and 1.82 µM, respectively.
The corresponding values for `CO[C@@H]1[C@@H](n2cc(-c3cc(F)c(F)c(F)c3)nn2)[C@@H](O)[C@@H](CO)O[C@@H]1CC1CC(C(C)(C)CO)=NO1` (stereo partly drawn) [Ex 1.281] are 0.53 µM and 2.55 µM.
The corresponding values for `CO[C@@H]1[C@@H](n2cc(-c3cc(F)c(F)c(F)c3)nn2)[C@@H](O)[C@@H](CO)O[C@@H]1Cc1cc(C2(C)CCOCC2)no1` [Ex 1.282] are 0.11 µM and 1.77 µM.
For the compound `CO[C@@H]1[C@@H](n2cc(-c3ccc(F)c(F)c3F)nn2)[C@@H](O)[C@@H](CO)O[C@@H]1Cc1cc(C2(C)CCOCC2)no1` [Ex 1.283], the values for the 50% inhibitory concentration (IC50) at human Gal-3 (hGal-3) and at human Gal-1 (hGal-1) were 0.049 µM and 0.38 µM, respectively.
The corresponding values for `CO[C@@H]1[C@@H](n2cc(-c3ccc(C)c(F)c3F)nn2)[C@@H](O)[C@@H](CO)O[C@@H]1Cc1cc(C2(C)CCOCC2)no1` [Ex 1.284] are 0.15 µM and 5.85 µM.
The corresponding values for `CO[C@@H]1[C@@H](n2cc(-c3ccc(Cl)c(F)c3F)nn2)[C@@H](O)[C@@H](CO)O[C@@H]1Cc1cc(C2(C)CCOCC2)no1` [Ex 1.285] are 0.051 µM and 1.1 µM.
The corresponding values for `CO[C@@H]1[C@@H](n2cc(-c3cc(F)c(F)c(F)c3)nn2)[C@@H](O)[C@@H](CO)O[C@@H]1Cc1cc(C2(C)CCCC2)no1` [Ex 1.286] are 0.23 µM and 3.08 µM.
`CO[C@@H]1[C@@H](n2cc(-c3ccc(F)c(F)c3F)nn2)[C@@H](O)[C@@H](CO)O[C@@H]1Cc1cc(C2(C)CCCC2)no1` [Ex 1.287]: the results for the IC50 on human Gal-3 (hGal-3) and on human Gal-1 (hGal-1) were 0.069 µM and 0.59 µM, respectively.
Take `CO[C@@H]1[C@@H](n2cc(-c3ccc(C)c(F)c3F)nn2)[C@@H](O)[C@@H](CO)O[C@@H]1Cc1cc(C2(C)CCCC2)no1` [Ex 1.288]: the results for the IC50 on human Gal-3 (hGal-3) and on human Gal-1 (hGal-1) were 0.063 µM and 5.75 µM, respectively.
Regarding `CO[C@@H]1[C@@H](n2cc(-c3ccc(Cl)c(F)c3F)nn2)[C@@H](O)[C@@H](CO)O[C@@H]1Cc1cc(C2(C)CCCC2)no1` [Ex 1.289], the results for the IC50 at human Gal-3 (hGal-3) and on human Gal-1 (hGal-1) were 0.059 µM and 1.77 µM, respectively.
The corresponding values for `CO[C@@H]1[C@@H](n2cc(-c3cc(F)c(F)c(F)c3)nn2)[C@@H](O)[C@@H](CO)O[C@@H]1Cc1cc(C2(C#N)CCCC2)no1` [Ex 1.290] are 0.27 µM and 2.12 µM.
The corresponding values for `CO[C@@H]1[C@@H](n2cc(-c3ccc(F)c(F)c3F)nn2)[C@@H](O)[C@@H](CO)O[C@@H]1Cc1cc(C2(C#N)CCCC2)no1` [Ex 1.291] are 0.14 µM and 0.94 µM.
The corresponding values for `CO[C@@H]1[C@@H](n2cc(-c3ccc(C)c(F)c3F)nn2)[C@@H](O)[C@@H](CO)O[C@@H]1Cc1cc(C2(C#N)CCCC2)no1` [Ex 1.292] are 0.051 µM and 3.54 µM.
In the case of `CO[C@@H]1[C@@H](n2cc(-c3ccc(Cl)c(F)c3F)nn2)[C@@H](O)[C@@H](CO)O[C@@H]1Cc1cc(C2(C#N)CCCC2)no1` [Ex 1.293], the IC50 at human Gal-3 (hGal-3) was 0.093 µM; on human Gal-1 (hGal-1), 2.92 µM.
The corresponding values for `COc1ccc(C2=NOC(C[C@H]3O[C@H](CO)[C@H](O)[C@H](n4cc(-c5cc(F)c(F)c(F)c5)nn4)[C@H]3OC)C2)cc1` (stereo partly drawn) [Ex 1.294] are 1.54 µM and 14 µM.
For `OC[C@H]1O[C@H](CC2CC(c3cc(Cl)ccc3Cl)=NO2)[C@H](O)[C@@H](n2cc(-c3cc(F)c(F)c(F)c3)nn2)[C@H]1O` (stereo partly drawn) [Ex 1.295], in that order: 1.8 µM and 17.1 µM.
As to `COc1ccc(-c2cc(C[C@H]3O[C@H](CO)[C@H](O)[C@H](n4cc(-c5cc(F)c(F)c(F)c5)nn4)[C@H]3O)no2)cc1` [Ex 1.296], the IC50 stood at 1.41 µM at human Gal-3 (hGal-3) and 52.2 µM on human Gal-1 (hGal-1).
In the case of `CC(C)(C)OC(=O)N1CCC(C2=NOC(C[C@H]3O[C@H](CO)[C@H](O)[C@H](n4cc(-c5c(F)cccc5F)nn4)[C@H]3O)C2)CC1` (stereo partly drawn) [Ex 1.298], the 50% inhibitory concentration (IC50) stood at 2.5 µM on human Gal-3 (hGal-3) and 0.99 µM at human Gal-1 (hGal-1).
For `COc1cccc(-c2cn([C@H]3[C@@H](O)[C@@H](CO)O[C@H](CC4CC(C5CCN(C(=O)OC(C)(C)C)CC5)=NO4)[C@@H]3O)nn2)c1` (stereo partly drawn) [Ex 1.300], in that order: 1.41 µM and 2.27 µM.
The corresponding values for `CC(C)(C)OC(=O)N1CCC(C2=NOC(C[C@H]3O[C@H](CO)[C@H](O)[C@H](n4cc(-c5cccc(C(F)(F)F)c5)nn4)[C@H]3O)C2)CC1` (stereo partly drawn) [Ex 1.301] are 2.7 µM and 2.89 µM.
`CO[C@@H]1[C@@H](n2cc(-c3cc(F)c(F)c(F)c3)nn2)[C@@H](O)[C@@H](CO)O[C@@H]1Cc1cc(C(C)(C)C(F)F)no1` [Ex 1.303]: the figures for the 50% inhibitory concentration (IC50) at human Gal-3 (hGal-3) and on human Gal-1 (hGal-1) were 0.14 µM and 0.55 µM, respectively.
The corresponding values for `CO[C@@H]1[C@@H](n2cc(-c3ccc4ccccc4c3)nn2)[C@@H](O)[C@@H](CO)O[C@@H]1CC1CC(C2CCN(C(=O)OC(C)(C)C)CC2)=NO1` (stereo partly drawn) [Ex 1.304] are 1.62 µM and 3.91 µM.
For `CO[C@@H]1[C@@H](n2cc(-c3cccc4ccccc34)nn2)[C@@H](O)[C@@H](CO)O[C@@H]1CC1CC(C2CCN(C(=O)OC(C)(C)C)CC2)=NO1` (stereo partly drawn) [Ex 1.305], in that order: 1.86 µM and 1.18 µM.
The corresponding values for `CO[C@@H]1[C@@H](n2cc(-c3cc(F)c(F)c(F)c3)nn2)[C@@H](O)[C@@H](CO)O[C@@H]1Cc1cc(C)no1` [Ex 1.306] are 1.22 µM and 6.19 µM.
Take `CCc1cc(C[C@H]2O[C@H](CO)[C@H](O)[C@H](n3cc(-c4cc(F)c(F)c(F)c4)nn3)[C@H]2OC)on1` [Ex 1.307]: the 50% inhibitory concentration (IC50) on human Gal-3 (hGal-3) is 0.67 µM; on human Gal-1 (hGal-1), 7.22 µM.
The corresponding values for `CO[C@@H]1[C@@H](n2cc(-c3cc(F)c(F)c(F)c3)nn2)[C@@H](O)[C@@H](CO)O[C@@H]1Cc1cc(C(C)C)no1` [Ex 1.308] are 0.18 µM and 2.37 µM.
The corresponding values for `CCOC(C)(C)c1cc(C[C@H]2O[C@H](CO)[C@H](O)[C@H](n3cc(-c4cc(F)c(F)c(F)c4)nn3)[C@H]2OC)on1` [Ex 1.309] are 0.69 µM and 2.74 µM.
For `CO[C@@H]1[C@@H](n2cc(-c3ccccc3)nn2)[C@@H](O)[C@@H](CO)O[C@@H]1CC1CC(C2CCN(C(=O)OC(C)(C)C)CC2)=NO1` (stereo partly drawn) [Ex 1.310], in that order: 3.62 µM and 0.48 µM.
For `CO[C@@H]1[C@@H](n2cc(-c3nc(Br)cs3)nn2)[C@@H](O)[C@@H](CO)O[C@@H]1CC1CC(C2CCN(C(=O)OC(C)(C)C)CC2)=NO1` (stereo partly drawn) [Ex 1.311], the 50% inhibitory concentration (IC50) on human Gal-3 (hGal-3) came out at 2.38 µM; at human Gal-1 (hGal-1), 0.065 µM.
For `CO[C@@H]1[C@@H](n2cc(-c3cc(F)c(F)c(F)c3)nn2)[C@@H](O)[C@@H](CO)O[C@@H]1Cc1cc(C2(O)CCCC2)no1` [Ex 1.312], in that order: 0.14 µM and 4.24 µM.

These data come from patent US12319672B2, “Alpha-D-galactopyranoside derivatives” (Idorsia Pharmaceuticals Ltd, priority 2019, dated 2025).
